Assay results as given in US9988407B2, “Prodrugs of prostate specific membrane antigen (PSMA) inhibitor” (THE JOHNS HOPKINS UNIVERSITY, priority 2014, dated 2018).
“Also recorded” adds a separate entry of the source.

Assays:
[1] = In vitro metabolic stability screen in plasma and liver subcellular fractions (results in words); type: in vitro ADME; conditions: 60 min incubation
Description: (§1) For metabolic stability, plasma (mouse, dog, monkey and human) and liver microsomes (mouse, dog, monkey and human) were used. For stability, prodrugs (10 μM) were spiked in each matrix and incubated in an orbital shaker at 37° C. At predetermined times (0, 30 and 60 min), 100 μL aliquots of the mixture in triplicate were removed and the reaction quenched by addition of three times the volume of ice cold acetonitrile spiked with the internal standard (losartan 5 μM). The samples were vortexed for 30 s and centrifuged 12000 g for 10 min. 50 μL supernatant diluted with 50 μL water was transferred to a 250 μL polypropylene vial sealed with a Teflon cap. Prodrug disappearance was monitored over time using a liquid chromatography and tandem mass spectrometry (LC/MS/MS) method as described below.
(§2) For LC/MS/MS, prodrugs were separated with Thermo Scientific Accela UPLC system coupled to Accela open autosampler on an Agilent C18 (100×2.1 mm id) UPLC column. The autosampler was temperature controlled and operating at 10° C. The mobile phase used for the chromatographic separation was composed of acetonitrile/water containing 0.1% formic acid and was run at a flow rate of 0.5 mL/minute for 4.5 minutes using gradient elution. The column effluent was monitored using TSQ Vantage triple-quadrupole mass spectrometric detector, equipped with an electrospray probe set in the positive ionization mode. Samples were introduced into the ionization source through a heated nebulized probe (350° C.).
For quantification of compound remaining, disappearance of prodrugs was measured from ratio of peak areas of analyte to IS. Percentage remaining was calculated in the following manner:
In general, the prodrugs were screened by an in vitro metabolic stability screen, and if positive, followed by an in vivo single time point pharmacokinetic study, and in select cases, an in vivo full time course pharmacokinetic study (FIG. 3). In this Example, the four acidic functional groups in 2-PMPA were systematically capped. The carboxylic acids were first masked with simple alkyl esters (Compounds 1, 2, and 3). In vitro chemical and metabolic stability of the prodrugs then were conducted, following 60 min incubation in plasma stability screens for prodrugs.

[2] = Metabolic stability in mouse liver S9; type: in vitro ADME; conditions: Mouse S9, 10 μM, 37° C.
[3] = Chemical stability in HBSS buffer (pH 7.4) / simulated gastric fluid; type: physicochemical; conditions: for Percentage remaining: HBSS, 10 μM, 37° C.; for chemical stability: chemical hydrolysis / HBSS buffer
Description: The chemical stability of prodrugs was evaluated using simulated gastric fluid (pH 1.2) and Hanks' Balanced Salt Solution (HBSS) buffer (pH 7.4). Briefly, prodrugs were spiked (10 μM) in respective solutions and incubated at 37° C. for 1 h. At predetermined time points (0, 30 and 60 min), aliquots of 100 μL were removed and diluted with 100 μL of water. Prodrug disappearance was monitored using the developed liquid chromatography and tandem mass spectrometry (LC/MS/MS) method described below.
as §2
(§3) For quantification of compound remaining, disappearance of prodrugs was measured from ratio of peak areas of analyte to IS. Percentage remaining was calculated in the following manner: […]

[4] = Metabolic stability in mouse plasma; type: in vitro ADME; conditions: 10 μM, 37° C.
Description: as §1, §2, §3

[5] = In vivo pharmacokinetics in mice, peroral, bioanalysis method 1 (total prodrug exposure); conditions: mice, oral dosing
Description: Blood was obtained via cardiac puncture and tissue dissected at 0 min, 15 min, 30 min, 1 h, 2 h, and 4 h post dose (n=3 per time point). Single time point studies were conducted at 30 min (N=3) following dosing. Plasma was harvested from blood by centrifugation. Mean concentration-time data was used for pharmacokinetic (PK) analysis. Non-compartmental-analysis module in WinNonlin® (version 5.3) was used to assess pharmacokinetic parameters. Peak plasma concentrations (Cmax) and time to Cmax (Tmax) were the observed values. Area under the curve (AUC) was calculated by log-linear (p.o.) trapezoidal rule to the end of sample collection (AUClast) and extrapolated to infinity (AUC0-∞) by dividing the last quantifiable concentration by the terminal disposition rate constant (ke). Terminal half-life (t1/2) was estimated from first order kinetics: t1/2=0.693/ke.
Briefly, prior to extraction, frozen samples were thawed on ice. For plasma extraction, 50 μL of the calibration standards or samples were transferred into silanized microcentrifuge tubes. Sample preparation involved a single liquid extraction by addition of 300 μL of methanol as extraction solution with internal standard (i.e., 5 μM of 2-PMSA in methanol), followed by vortexing for 30 s and then centrifugation at 12000 g for 10 min. Supernatant was transferred (˜250 μL) and evaporated to dryness at 40° C. under a gentle stream of nitrogen. The residue was reconstituted with 100 μL of derivatizing agent, n-butanol with 3N HCl, and samples were vortexed. The samples were heated at ˜60 OC in a shaking water bath for 30 min. At the end of 30 min, the derivatized samples were allowed to cool at room temperature and dried again for removal of derivatizing reagent, under a gentle stream of nitrogen. The residue was reconstituted in 100 μL of 30% acetonitrile in water v/v. The samples were vortexed and centrifuged again. ˜80 μL supernatant was transferred to a 250 μL polypropylene vial sealed with a Teflon cap and a volume of 10 μL was injected onto the ultra-performance liquid chromatography (UPLC) instrument for quantitative analysis. Chromatographic analysis was performed using an Accela™ ultra high-performance system consisting of an analytical pump, and an autosampler coupled with TSQ Vantage mass spectrometer (Thermo Fisher Scientific Inc., Waltham Mass.). […] The mobile phase used was composed of 0.1% formic acid in acetonitrile and 0.1% formic acid in H2O with gradient elution, starting with 20% (organic) linearly increasing to 65% up to 2.5 min, maintaining at 65% (2.5-3.5 min) and reequilibrating to 30% by 5 min. The total run time for each analyte was 5.0 min.

[6] = Metabolic stability in mouse liver microsomes; type: in vitro ADME; conditions: 10 μM, 37° C.
Description: as §1, §2, §3

[7] = Metabolic stability in human plasma; type: in vitro ADME; conditions: 10 μM, 37° C.
Description: as §1, §2, §3

[8] = Metabolic stability in human liver microsomes; type: in vitro ADME; conditions: 10 μM, 37° C.
Description: as §1, §2, §3

[9] = In vivo pharmacokinetics in mice, peroral, bioanalysis method 2 (2-PMPA release); conditions: for stability of carboxylic esters in vivo: mouse
Description: Blood was obtained via cardiac puncture and tissue dissected at 0 min, 15 min, 30 min, 1 h, 2 h, and 4 h post dose (n=3 per time point). Single time point studies were conducted at 30 min (N=3) following dosing. Plasma was harvested from blood by centrifugation. Mean concentration-time data was used for pharmacokinetic (PK) analysis. Non-compartmental-analysis module in WinNonlin® (version 5.3) was used to assess pharmacokinetic parameters. Peak plasma concentrations (Cmax) and time to Cmax (Tmax) were the observed values. Area under the curve (AUC) was calculated by log-linear (p.o.) trapezoidal rule to the end of sample collection (AUClast) and extrapolated to infinity (AUC0-∞) by dividing the last quantifiable concentration by the terminal disposition rate constant (ke). […] The tissues were stored in −20° C. for 1 h and then homogenized. The calibration curve for the tissues was developed using naïve mouse brains from untreated animals as a matrix. For sciatic nerve, the nerves were weighed and homogenized in 50 μL methanol and the calibration curve was developed using naïve sciatic nerves from untreated animals as a matrix. The samples were vortexed and centrifuged. […] Supernatant was dried under a gentle stream of nitrogen at 45° C. and the residue reconstituted with 75 μL of acetonitrile and vortexed. 25 μL of derivatizing agent N-tert-Butyldimethysilyl-N-methyltrifluoro-acetamide (MTBSTFA) was added to microcentrifuge tubes, vortexed, and heated at ˜60 OC for 40 min. At the end of 40 min, the derivatized samples ˜75 μL were transferred to a 250 μL polypropylene vials and were analyzed via LC/MS/MS. Chromatographic analysis was performed using an Accela™ ultra high-performance system consisting of an analytical pump, and an autosampler coupled with TSQ Vantage mass spectrometer (Thermo Fisher Scientific Inc., Waltham Mass.). […] The total run time for each analyte was 5.0 min. Chromatographic analysis will be performed on Accela UPLC.

SMILES	in vitro metabolic stability [1]	Percentage remaining ([2]; 0 min) [%]	Percentage remaining ([2]; 30 min) [%]	Percentage remaining ([2]; 60 min) [%]	chemical stability [3]	Percentage remaining ([4]; 0 min) [%]	Percentage remaining ([4]; 30 min) [%]	Percentage remaining ([4]; 60 min) [%]	permeability in vivo [5]	Percentage remaining ([6]; 0 min) [%]	Percentage remaining ([6]; 30 min) [%]	Percentage remaining ([6]; 60 min) [%]	Percentage remaining ([7]; 0 min) [%]	Percentage remaining ([7]; 30 min) [%]	Percentage remaining ([7]; 60 min) [%]	Percentage remaining ([8]; 0 min) [%]	Percentage remaining ([8]; 30 min) [%]	Percentage remaining ([8]; 60 min) [%]	other results
COC(=O)CCC(CP(=O)(OCOC(=O)OC(C)C)OCOC(=O)OC(C)C)C(=O)OC (stereo not drawn) [Compound 6, Dimethyl 2-((bis{[(isopropoxycarbonyl)oxy]methoxy}phosphoryl)methyl)-pentanedioate]	unstable in mouse plasma and mouse liver microsomes	100	1	0.1	stable to chemical hydrolysis	100	2	0.4	good compound penetrability; also recorded: good permeability	100	2	0.1	–	–	–	–	–	–	Percentage remaining ([3]; 0 min): 100%; Percentage remaining ([3]; 30 min): 101%; Percentage remaining ([3]; 60 min): 93%; chemical stability ([3]; listed as JHU 2110): stable in HBSS buffer; permeability in vivo ([5]; listed as JHU 2110): most permeable
CC(C)(C)C(=O)OCOC(=O)C(CCC(=O)O)CP(=O)(OCOC(=O)C(C)(C)C)OCOC(=O)C(C)(C)C (stereo not drawn) [Compound 23]	instability in plasma and liver subcellular fractions	–	–	–	sufficient chemical stability	–	–	–	highest permeability	–	–	–	–	–	–	–	–	–	–
CCOC(=O)CCC(CP(=O)(OCOC(=O)C(C)(C)C)OCOC(=O)C(C)(C)C)C(=O)OCC (stereo not drawn) [Compound 18, Diethyl 2-({bis[(pivaloyloxy)methoxy]phosphoryl}methyl)pentanedioate]	too stable	100	1	0	–	0	0	0	–	100	2	0	100	50	18	100	1	0	–
COC(=O)CCC(CP(=O)(O)O)C(=O)OC (stereo not drawn) [Compound 1, [5-(Methyloxy)-2-(methoxycarbonyl)-5-oxopentyl]phosphonic acid]	too stable; also recorded: stable in plasma	100	101	86	–	100	102	101	–	100	102	103	100	100	86	100	90	96	in vitro metabolic stability ([1]; listed as JHU 2106): too stable; stability of carboxylic esters in vivo [9]: too stable in vivo; Percentage remaining ([3]; 0 min): 100%; Percentage remaining ([3]; 30 min): 92%; Percentage remaining ([3]; 60 min): 94%
COC(=O)C(CCC(=O)O)CP(=O)(OCOC(=O)OC(C)C)OCOC(=O)OC(C)C (stereo not drawn) [Compound 7, 4-((Bis{[(isopropoxycarbonyl)oxy]methoxy}phosphoryl)methyl)-5-methoxy-5-oxopentanoic acid]	unstable in mouse plasma and mouse liver microsomes	–	–	–	stable to chemical hydrolysis	–	–	–	good compound penetrability; also recorded: good permeability	–	–	–	–	–	–	–	–	–	–
CC(C)OC(=O)OC(C)OC(=O)C(CCC(=O)O)CP(=O)(OC(C)OC(=O)OC(C)C)OC(C)OC(=O)OC(C)C (stereo not drawn) [Compound 24]	instability in plasma and liver subcellular fractions	–	–	–	sufficient chemical stability	100	0	0	–	100	1	0	100	106	75	100	27	8	oral bioavailability ([9]; rodents and dogs): excellent oral bioavailability
CCCOC(=O)CCC(CP(=O)(O)O)C(=O)OCCC (stereo not drawn) [Compound 3, [5-Oxo-5-propoxy-2-(propoxycarbonyl)pentyl]phosphonic acid]	too stable	–	–	–	–	–	–	–	then the propyl ester	–	–	–	–	–	–	–	–	–	stability of carboxylic esters in vivo [9]: too stable in vivo
